Assay [1] deals with T1, von Hippel-Lindau disease tumor suppressor/Serine/threonine-protein kinase PAK 1 (Homo sapiens, UniProt Q13153+P40337). Nature of the assay: PROTAC activity at VHL/PAK1 in human MDA-MB-231 cells assessed as induction of protein degradation at 2.5 uM incubated for 48 hrs by Western blot analysis relative to control. Type of assay: cell-based.
The target in assay [2] is T1, von Hippel-Lindau disease tumor suppressor/Serine/threonine-protein kinase PAK 1. Nature of the assay: PROTAC activity at VHL/PAK1 in human MDA-MB-231 cells assessed as induction of protein degradation at 0.1 uM incubated for 48 hrs by Western blot analysis relative to control. The class given is cell-based. For orientation: In western blotting, separated proteins are transferred to a membrane and probed.

The subject of assay [3] is MDA-MB-231. Nature of the assay: Antiproliferative activity against human MDA-MB-231 cells incubated for 48 hrs by MTT assay. The class given is functional, cell-based. To be noted: MDA-MB-231, 48 h.
Assay [4] addresses T1, von Hippel-Lindau disease tumor suppressor/Serine/threonine-protein kinase PAK 1. Kind of assay: PROTAC activity at VHL/PAK1 in human MDA-MB-231 cells assessed as fold change in protein expression at 2.5 uM incubated for 48 hrs by Western blot analysis relative to control. The class given is cell-based.
The target of assay [5] is T2, Protein cereblon/Serine/threonine-protein kinase PAK 1 (Homo sapiens) (UniProt Q13153+Q96SW2). Nature of the assay: PROTAC activity at CRBN/PAK1 in human MDA-MB-231 cells assessed as induction of protein degradation at 2.5 uM incubated for 48 hrs by Western blot analysis relative to control. The class given is cell-based.
T2 sequence (Q13153 whole entry, looked up): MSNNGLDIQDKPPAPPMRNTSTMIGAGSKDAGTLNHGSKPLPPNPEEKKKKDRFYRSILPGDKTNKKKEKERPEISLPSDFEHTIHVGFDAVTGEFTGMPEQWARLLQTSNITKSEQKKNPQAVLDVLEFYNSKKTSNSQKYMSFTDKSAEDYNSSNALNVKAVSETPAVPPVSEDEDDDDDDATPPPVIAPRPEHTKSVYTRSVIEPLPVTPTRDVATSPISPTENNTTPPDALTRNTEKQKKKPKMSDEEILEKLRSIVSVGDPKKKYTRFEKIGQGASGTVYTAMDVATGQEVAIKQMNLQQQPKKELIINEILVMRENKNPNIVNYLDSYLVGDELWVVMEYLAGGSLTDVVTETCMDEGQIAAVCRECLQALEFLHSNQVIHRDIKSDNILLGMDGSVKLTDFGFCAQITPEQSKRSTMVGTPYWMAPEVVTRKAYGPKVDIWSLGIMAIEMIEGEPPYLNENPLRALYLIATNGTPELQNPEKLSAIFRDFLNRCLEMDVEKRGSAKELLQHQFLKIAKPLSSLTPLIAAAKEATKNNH
T2 sequence (Q96SW2 whole entry, looked up): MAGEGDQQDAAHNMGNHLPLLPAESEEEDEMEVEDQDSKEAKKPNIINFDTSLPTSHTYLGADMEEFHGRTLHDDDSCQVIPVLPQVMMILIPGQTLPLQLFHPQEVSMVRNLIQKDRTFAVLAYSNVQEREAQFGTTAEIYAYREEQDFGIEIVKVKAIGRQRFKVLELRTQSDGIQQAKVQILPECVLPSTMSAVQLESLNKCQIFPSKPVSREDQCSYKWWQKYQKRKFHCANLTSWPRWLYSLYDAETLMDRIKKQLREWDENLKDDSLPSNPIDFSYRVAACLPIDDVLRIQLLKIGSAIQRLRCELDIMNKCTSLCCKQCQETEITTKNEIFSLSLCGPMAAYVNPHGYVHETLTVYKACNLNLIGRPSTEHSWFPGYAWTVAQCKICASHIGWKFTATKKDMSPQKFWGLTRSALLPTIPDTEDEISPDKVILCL
Assay [6] concerns the target T2, Protein cereblon/Serine/threonine-protein kinase PAK 1 (Homo sapiens). Kind of assay: PROTAC activity at CRBN/PAK1 in human MDA-MB-231 cells assessed as induction of protein degradation at 0.1 uM incubated for 48 hrs by Western blot analysis relative to control. The class given is cell-based.
Assay [7] shares this target. Kind of assay: PROTAC activity at CRBN/PAK1 in human MDA-MB-231 cells assessed as fold change in protein expression at 2.5 uM incubated for 48 hrs by Western blot analysis relative to control. The class given is cell-based.
The target of assay [8] is Serine/threonine-protein kinase PAK 1 (Homo sapiens, UniProt Q13153). Nature of the assay: Inhibition of PAK1 (unknown origin).
Serine/threonine-protein kinase PAK 1, sequence (Q13153 whole entry): as the sequence (Q13153 whole entry, looked up) above
For assay [9], the system named is MDA-MB-231. Nature of the assay: Antiproliferative activity against human MDA-MB-231 cells. Type of assay: functional, cell-based.
For assay [10], the system named is MDA-MB-231. Kind of assay: Inhibition of cell proliferation of human MDA-MB-231 cells at 2.5 uM by crystal violet staining based colony formation assay. Type of assay: functional.
For assay [11], the system named is MDA-MB-231. Nature of the assay: Inhibition of 3D-spherioid formation of human MDA-MB-231 cells at 2.5 uM by crystal violet staining based colony formation assay. Type of assay: functional, cell-based.
Assay [12] concerns MDA-MB-231. Kind of assay: Inhibition of cell proliferation of human MDA-MB-231 cells at 2.5 uM by EdU staining based analysis. The class given is functional.
The subject of assay [13] is MDA-MB-231. Nature of the assay: Inhibition of cell proliferation of human MDA-MB-231 cells assessed as decrease in Ki-67 expression at 2.5 uM incubated for 24 hrs by immunofluorescence based analysis. The class given is functional.
Assay [14] concerns MDA-MB-231. Nature of the assay: Inhibition of cell migration in human MDA-MB-231 cells at 2.5 uM incubated upto 48 hrs by wound healing assay. The class given is functional, cell-based.
Assay [15] deals with MDA-MB-231. Nature of the assay: Inhibition of cell migration in human MDA-MB-231 cells at 2.5 uM incubated for 24 hrs by transwell assay. Type of assay: functional, cell-based.
For assay [16], the system named is MDA-MB-231. Kind of assay: Induction of apoptosis in human MDA-MB-231 cells assessed as viable cells at 2.5 uM incubated for 12 to 48 hrs by Annexin V-FITC/PI staining based flow cytometry (reference value: 97.0 %). To be noted: time 12-48 hrs, read-out: Activity. Type of assay: functional. (In general: Flow cytometry measures light scatter and fluorescence of single cells or particles in a stream.)

In assay [17] the test system is MDA-MB-231. Kind of assay: Induction of apoptosis in human MDA-MB-231 cells assessed as early apoptotic cells at 2.5 uM incubated for 12 to 48 hrs by Annexin V-FITC/PI staining based flow cytometry (reference value: 1.12 %). Type of assay: functional. To be noted: time 12-48 hrs.
Assay [18] has as its system MDA-MB-231. Kind of assay: Induction of apoptosis in human MDA-MB-231 cells assessed as late apoptotic cells at 2.5 uM incubated for 12 to 48 hrs by Annexin V-FITC/PI staining based flow cytometry (reference value: 1.48 %). Type of assay: functional. To be noted: time 12-48 hrs.
Assay [19] relates to MDA-MB-231. Kind of assay: Induction of apoptosis in human MDA-MB-231 cells assessed as necrotic cells at 2.5 uM incubated for 12 to 48 hrs by Annexin V-FITC/PI staining based flow cytometry (reference value: 0.43 %). The class given is functional. To be noted: time 12-48 hrs.

Calls of active or inactive are those of the source. The rule behind the calls is not given here.

T1 sequence (Q13153 2-545 limits assumed): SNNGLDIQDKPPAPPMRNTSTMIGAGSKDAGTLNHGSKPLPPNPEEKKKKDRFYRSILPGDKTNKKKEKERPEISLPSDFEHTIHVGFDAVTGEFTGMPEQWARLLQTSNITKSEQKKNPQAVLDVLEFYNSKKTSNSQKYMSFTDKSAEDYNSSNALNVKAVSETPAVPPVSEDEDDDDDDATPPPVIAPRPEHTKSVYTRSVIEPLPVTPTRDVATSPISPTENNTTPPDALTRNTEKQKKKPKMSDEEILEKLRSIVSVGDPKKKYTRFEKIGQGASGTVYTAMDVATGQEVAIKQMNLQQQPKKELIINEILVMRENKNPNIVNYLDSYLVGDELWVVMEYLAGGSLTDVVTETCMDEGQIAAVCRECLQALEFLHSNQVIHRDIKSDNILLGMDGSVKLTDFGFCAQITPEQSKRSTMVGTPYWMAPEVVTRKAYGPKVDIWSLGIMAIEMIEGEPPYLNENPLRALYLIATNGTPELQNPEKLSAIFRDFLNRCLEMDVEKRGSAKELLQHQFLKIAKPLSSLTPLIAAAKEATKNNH
T1 sequence (P40337 whole entry partner): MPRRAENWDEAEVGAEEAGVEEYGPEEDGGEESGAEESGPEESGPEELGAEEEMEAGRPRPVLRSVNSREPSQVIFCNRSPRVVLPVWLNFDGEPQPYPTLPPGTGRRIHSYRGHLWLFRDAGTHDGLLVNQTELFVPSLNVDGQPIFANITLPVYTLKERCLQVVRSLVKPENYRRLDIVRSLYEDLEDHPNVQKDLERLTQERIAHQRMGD

For `Cc1ncsc1-c1ccc([C@H](C)NC(=O)[C@@H]2C[C@@H](O)CN2C(=O)[C@@H](NC(=O)CCc2cn(CCCCCCn3c(=O)c(-c4ccc(Cl)cc4Cl)cc4cnc(NC5CC5)nc43)nn2)C(C)(C)C)cc1`, the values for the Activity in [1] and in assay [2] were 67.1% and 39.1%, respectively. For the same compound, 3.78 µM corresponded to half-maximal inhibition in assay [3] (IC50). In assay [4], the fold change (FC) worked out at 0.329.

Regarding `CNc1ncc2cc(-c3ccc(Cl)cc3Cl)c(=O)n(CCCCCCn3cc(CNc4cccc5c4C(=O)N(C4CCC(=O)NC4=O)C5=O)nn3)c2n1` (configuration not stated), the results for the Activity in [5] and in assay [6] were 41.7% and 15.3%, respectively. Besides, in [3], the IC50 (usually the concentration that inhibits the measured activity by half) was 25.8 µM. For the same compound, the fold change (FC) in [7] was 0.653.

On to `Cc1ncsc1-c1ccc([C@H](C)NC(=O)[C@@H]2C[C@@H](O)CN2C(=O)[C@@H](NC(=O)CCCc2cn(CCCCCCCn3c(=O)c(-c4ccc(Cl)cc4Cl)cc4cnc(NC5CC5)nc43)nn2)C(C)(C)C)cc1`, for which the Activity was determined as 68.2% in [1] and 41% in [2]. In addition, the IC50 in assay [3] is 2.01 µM. For the same compound, in assay [4], the fold change (FC) turned out to be 0.318.

For the compound `Cc1ncsc1-c1ccc([C@H](C)NC(=O)[C@@H]2C[C@@H](O)CN2C(=O)[C@@H](NC(=O)CCCc2cn(CCCCCn3c(=O)c(-c4ccc(Cl)cc4Cl)cc4cnc(NC5CC5)nc43)nn2)C(C)(C)C)cc1`, the Activity came to 45.5% in assay [1] and 11.9% in [2]. In assay [3], the IC50 amounted to 16.3 µM. In addition, the fold change (FC) in assay [4] came out at 0.545.

Turning to `CNc1ncc2cc(-c3ccc(Cl)cc3Cl)c(=O)[nH]c2n1`, the IC50 came to 0.052 µM in assay [8], 28.6 µM in [9] and 28.6 µM in assay [3].

As to `Cc1ncsc1-c1ccc([C@H](C)NC(=O)[C@@H]2C[C@@H](O)CN2C(=O)[C@@H](NC(=O)CCc2cn(CCOCCn3c(=O)c(-c4ccc(Cl)cc4Cl)cc4cnc(NC5CC5)nc43)nn2)C(C)(C)C)cc1`, the Activity in [1] is 44.3%; in [2] it was 15.7%. In [3], this compound yielded an IC50 of 16.9 µM. Moreover, in assay [4], the fold change (FC) is 0.557.

On to `O=C1CCC(N2C(=O)c3cccc(NCc4cn(CCCCCCCn5c(=O)c(-c6ccc(Cl)cc6Cl)cc6cnc(NC7CC7)nc65)nn4)c3C2=O)C(=O)N1` (configuration not stated), for which the Activity in assay [5] was 56.1%; in assay [6], 18.3%. This compound also registered a half-maximal inhibitory concentration (IC50) in assay [3] of 7.35 µM. Further, in assay [7], the fold change (FC) turned out to be 0.44.

For the compound `Cc1ncsc1-c1ccc([C@H](C)NC(=O)[C@@H]2C[C@@H](O)CN2C(=O)[C@@H](NC(=O)CCCCc2cn(CCCCCn3c(=O)c(-c4ccc(Cl)cc4Cl)cc4cnc(NC5CC5)nc43)nn2)C(C)(C)C)cc1`, the Activity amounted to 57% in [1] and 27.4% in assay [2]. This compound also displayed an IC50 in assay [3] of 5.47 µM. Besides, the fold change (FC) in assay [4] came out at 0.43.

`O=C1CCC(N2C(=O)c3cccc(NCc4cn(CCOCCOCCn5c(=O)c(-c6ccc(Cl)cc6Cl)cc6cnc(NC7CC7)nc65)nn4)c3C2=O)C(=O)N1` (configuration not stated): in [5], the Activity worked out at 23.9%. Moreover, in assay [3], the IC50 was > 50 µM. The fold change (FC) in assay [7] came out at 1.05.

Take `CNc1ncc2cc(-c3ccc(Cl)cc3Cl)c(=O)n(CCCCn3cc(CNc4cccc5c4C(=O)N(C4CCC(=O)NC4=O)C5=O)nn3)c2n1` (configuration not stated): the Activity in assay [5] came out at 2.8%. For the same compound, in [3], the IC50 was > 50 µM. In addition, in [7], the fold change (FC) was 0.583.

Take `CNc1ncc2cc(-c3ccc(Cl)cc3Cl)c(=O)n(CCCCCCCn3cc(CNc4cccc5c4C(=O)N(C4CCC(=O)NC4=O)C5=O)nn3)c2n1` (configuration not stated): the Activity in [5] worked out at 45.5%; in assay [6] it was 23.1%. Also, half-maximal inhibition in [3] (IC50) was put at 18.9 µM. In addition, the fold change (FC) in assay [7] was determined as 0.545.

As to `CCn1c(=O)c(-c2ccc(-c3cncs3)cc2Cl)cc2cnc(Nc3ccc(N4CCN(C)CC4)cc3)nc21`, 3.23 µM corresponded to half-maximal inhibition in assay [3] (IC50). The inhibition entry in [10], in [11], in assay [12], in assay [13] and in [15] was “Active” each time. In addition, the inhibition entry in assay [14] is “inactive”. Further, the viability at 2.5 µM in assay [16] came to 97.2%. In addition, the Activity in [17] stood at 1.67%; in [18], 1.08%; in [19], 0.058%.
